The source of these data is patent US5767120A, “Tricyclic derivatives, compositions and methods of use” (Schering Corporation, priority 1995, dated 1998).

Test [1] is described as follows: Inhibition of LPS/Galactosaimine-Induced Lethality (septic shock). It counts as in vivo, Mice (C57BI/6J males). Particulars: 25 mg/kg orally or i.p. one hour before LPS (100 ng) and d-galactosamine (8 mg) i.p.; survival 24 hours after challenge. How it is done: This test procedure is a standard test used to determine activity against septic shock.
3. In Vivo Study: Inhibition of LPS/Galactosaimine-Induced Lethality
1) Mice (C57BI/6J males, 6-8 weeks of age) are dosed with the indicated compound (dissolved in CMC suspension vehicle; compounds are given orally or i.p. one hour before challenge with LPS and d-galactosamine).
2) Mice are challenged i.p. with a mixture of LPS (from E. coli 0111:B4; 100 ng) and d-galactosamine (8 mg).
3) Survival is determined 24 hours after challenge. See procedure published in J. Exp. Med. 165:657 (1987)

The next test deals with TNF-α. As to the kind of experiment: Inhibition of LPS-Induced TNF-α Production From the Murine Cell Line WEHI-265. The test is classed as cell-based. To be noted: Mus musculus, WEHI-265 cells, 20-24 hours. On the procedure:
This test procedure is a standard test used to determine anti-TNF-α activity and to evaluate the usefulness of said compounds for counteracting the biological effects of TNF-α.
1. In Vitro Study: Inhibition of LPS-Induced TNF-α Production From the Murine Cell Line WEHI-265
1) Cells (obtained from cell cultures containing ≤10^6 cells/ml) are suspended at 0.2×10^6 cells/ml in complete medium (RPMI1640, with 10% FCS, 10^-5 M 2-ME, 2 mM glutamine and 10 mM HEPES buffer) and plated in CoStar 24 well plates (1.0 ml/well).
2) Compounds are dissolved in the appropriate vehicle at 400 times the concentration to be tested, and 5 μl of compound is added to the wells.
3) LPS (from E. coli 0111:B4) is diluted to 6 μg/ml and 1.0 ml is added to wells.
4) Plates are incubated 20-24 hours in 37° CO02 incubator.
5) Supernatant fluids are collected and analyzed for TNF content as described in J. ImmunoL, 142:3884.

In a further test the test system is serum TNF. Briefly: Inhibition of LPS-Induced Serum TNF. The test is classed as in vivo, Mice (C57BI/6J males). To be noted: Mus musculus, 1.5 h; 25 mg/kg orally or i.p. one hour before LPS (50 μg i.p.); serum 90 min after LPS; values may be subject to a wide margin of error. On the procedure:
In addition to the in vitro test described above, the following in vivo test was also performed on several of the compounds of the present invention.
2. In Vivo Study: Inhibition of LPS-Induced Serum TNF
1) Mice (C57BI/6J males, 6-8 weeks of age) are dosed with the indicated compound (dissolved in CMC suspension vehicle; compounds are given orally or i.p. one hour before LPS challenge).
3) Mice are bled 90 min after LPS challenge.
4) Sera are analyzed for TNF content by ELISA as described in J. Immunol.

What is called inhibition is the percentage by which the read-out fell short of the control. Lower therefore signals a response near the control. One may read the inhibition in vivo as the share of the control response that was lost under treatment. With `C=CCC1(CCNC)c2ccccc2COc2ccccc21` (stereo not drawn) [ILL], the “# dead/total at 25 mg/kg” value in test [1] is 3/10. Moreover, the inhibition at 10 µM in the test on TNF-α worked out at 50%. In the test with serum TNF, this molecule came in with an inhibition in vivo at 25 mg/kg of 44%.

Take `C=CCC1(CCN(C)C)c2ccccc2COc2ccccc21` (stereo not drawn) [IMM]: the “# dead/total at 25 mg/kg” value in test [1] was 0/10. The inhibition at 10 µM in the test on TNF-α worked out at 70%. This molecule also came in with an inhibition in vivo at 25 mg/kg in the test on serum TNF of 32%.
